Experimental data published in patent publication US20240003908A1, “POLYOL BIOMARKERS FOR CONGENITAL DISORDERS OF GLYCOSYLATION” (Mayo Foundation for Medical Education and Research, priority 2020, published 2024).
Marks after values point to notes of the source that are not given here.

Assays:
[1] = test system: LAMP-2; test: LAMP-2 protein (immunoblot) and mRNA (RT-qPCR) in PMM-deficient fibroblasts; format: cell-based, human; details: 10 μM epalrestat
Source text: (§1) Effect of epalrestat on glycosylation biomarkers in vitro: Immunoblotting and RT-qPCR were used to measure Intercellular Adhesion Molecule 1 (ICAM-1) and Lysosomal Associated Membrane Protein 2 (LAMP-2) protein and mRNA expression levels, respectively, as cellular markers of N-glycosylation (Ferrer et al., Mol Genet Metab 131:424-429, 2020; He et al., J Biol Chem 287:18210-18217, 2012; Eskelinen, Mol Aspects Med 27:495-502, 2006; and Radenkovic et al., Mol Genet Metab 132:27-37, 2021) in 10 PMM-deficient fibroblast lines (P1-P6, P8, P17, P19, and P24) and in control fibroblasts, treated with 10 μM epalrestat (the optimal dose based on PMM enzyme activity as described above).

[2] = test system: ICAM-1; test: ICAM-1 protein (immunoblot) and mRNA (RT-qPCR) in PMM-deficient fibroblasts; format: cell-based, human; details: 10 μM epalrestat
Source text: as §1

[3] = test system: PMM-deficient fibroblasts; test: Multiplexed proteomics of PMM-deficient fibroblasts treated with epalrestat or vehicle; format: cell-based, human
Source text: Proteomics and glycoproteomics: Cell were scraped in PBS, pH 7.4 and sonicated with a tip sonicator at 40% amplitude for 3 cycles of 10 seconds each. Equal amount of proteins were digested with trypsin as described elsewhere (Mun et al., Anal Chem 92:14466-14475, 2020). The digested peptides were labeled with tandem mass tag (TMT) reagents as per the manufacturer's instructions (ThermoFisher). Labelled samples were pooled, and either size-exclusion chromatography or basic pH reversed-phase fractionation was performed. An aliquot of dried peptides was resuspended in 100 μL of 0.1% formic acid and injected into Superdex peptide 10/300 column (GE Healthcare). Twenty-one (21) early fractions were collected starting at 10 minutes after injection (total run time of 130 minutes) and analyzed by LC-MS/MS as described elsewhere (Mun et al., supra). Another aliquot of total peptides was cleaned up by C18 TopTips (Glygen) and fractionated by bRPLC on a reversed phase C18 column (4.6×100 mm column). Twelve (12) fractions were dried and re-suspended in 0.1% formic acid for LC-MS/MS analysis.
A modification of the LC-MS/MS parameters described by Mun et al. (supra) were used. Specifically, 21 early fractions from SEC and 12 fractions of bRPLC were analyzed by Orbitrap Exploris480 mass spectrometer (Thermo Fisher Scientific) coupled to an EASY-Spray column (Thermo Fisher Scientific). Every run was 130 minutes with a flow rate of 300 nL/minute. The gradient used for separation was: equilibration at 3% solvent B from 0 to 4 minutes, 3% to 10% sol B from 4 to 10 minutes, 10% to 35% sol B from 10.1 to 125 minutes, and 35% to 80% sol B from […]. All experiments were done in DDA mode with the top 15 ions isolated at a window of 0.7 m/z and a default charge state of +2. Charge states ranging from +2 to +7 were considered for MS/MS events. Stepped collision energy was applied to precursors at normalized collision energies of 15, 25, and 40. The MS precursor mass range was set to 375 to 2000 m/z and 100 to 2000 for MS/MS. The automatic gain control for MS and MS/MS were 1×10^6 and 1×10^5 and the injection times to reach AGC were 50 ms and 250 ms, respectively. 60 second dynamic exclusion was applied. Data acquisition was performed with the option of Lock mass (441.1200025 m/z) for all data.
Database searching and analysis: The publicly available software pGlyco Version 2.2.0 was used (Zeng et al., Sci Rep 6:25102, 2016; and Liu et al., Nat Commun 8:438, 2017). A glycan database containing 8,092 entries and Uniprot Human Reviewed protein sequences (20,432 entries) were used as protein sequence fasta files. […] Reporter ion quantification was performed in Proteome Discoverer 2.5 using “reporter ion quantifier” node and Ids were matched with quantitation on a scan-to-scan basis (MS/MS). […]

[4] = test system: fibroblasts from PMM2-CDG patients; test: Sorbitol and mannitol levels (GC-MS) in fibroblasts treated with epalrestat for 5 days; format: cell-based, human; details: fibroblasts from 5 PMM2-CDG patients vs 5 healthy controls, 10 μM epalrestat 5 days
Protocol: Metabolomics measurements: Fibroblasts derived from patients carrying selected heterozygous mutations in PMM2 (R141H/F119L, R141H/E139K, R141H/N216I, and R141H/F183S) and healthy controls were cultured according to a protocol described elsewhere (Radenkovic et al., Am J Hum Genet. 2019, 104(5):835-846). Cells were grown in specialized medium and treated with 10 μM epalrestat (Iyer et al., supra) for 5 days with two changes of medium. Non-treated fibroblasts from both groups were used as negative controls. Global metabolomic changes were probed by LC/MS.
Polyols also were analyzed by GC due to the inability of LC/MS to distinguish between the same sized metabolites ([…], GLC1P, GLC6P, sorbitol/mannitol/galactitol, etc.) (Radenkovic et al., supra).

[5] = test system: urine sorbitol and mannitol; test: Urine polyols (GC/MS) in patients with other CDG, post-treatment with epalrestat; format: in vivo, human
Protocol: Urine specimens were collected from patients known to have a CDG. The samples were spiked with a mixture of labeled internal standards, allowed to equilibrate, and evaporated. The dry residue was derivatized to form trimethylsilyl esters then extracted with hexane. Specimens were analyzed by GC/MS, with selected ion monitoring using ammonia chemical ionization and a stable isotope dilution method (Jansen et al. Clin Chim Acta 1986, 157:277-294; and Kaur et al., Eur J Med Genet 2019, 62(8):103708). Sorbitol levels were considered elevated when they were above 10 mmol/mol creatinine, and mannitol levels were considered elevated when they were above 15 mmol/mol creatinine.

With `CC(/C=C1\SC(=S)N(CC(=O)O)C1=O)=C\c1ccccc1` [epalrestat] the “LAMP-2 mRNA expression” value [1] was “no effect”, the “ICAM-1 mRNA expression” value [2] was “no effect” and the “Sorbitol dehydrogenase (SORD) increase in abundance” value ([3]; epalrestat-treated vs untreated PMM2-CDG fibroblasts) was 11%. The “number of proteins increased post treatment (30% cutoff)” value ([3]; of the 13 changed proteins) was 12, the “number of proteins different post-treatment with a 30% or bigger change cutoff” value ([3]; paired analysis before and after epalrestat) was 13 proteins and the “number of proteins different post-treatment” value ([3]; paired analysis before and after epalrestat, P1-P6 fibroblasts) was 628 proteins. The “sorbitol concentration, mean ratio after treatment” value ([4]; 1.4 prior to treatment, p=0.00013) was 1.25, the “mannitol concentration, mean ratio after treatment” value ([4]; 1.5 prior to treatment, p=0.064) was 1.2 and the “Mannitol (urine)” value ([5]; MAN1B1-CDG patient, second sample, after off-label epalrestat, first sample 14.92) was 2) 10.13 mmol/mol creatinine. For the same compound, the “Sorbitol (urine)” value ([5]; MAN1B1-CDG patient, second sample, post-treatment with epalrestat, first sample 10.44) was 2) 7.222^‡ mmol/mol creatinine and the “Sorbitol (urine)” value ([5]; SLC39A8-CDG patient, marked post-treatment with epalrestat) was 18.0^‡ mmol/mol creatinine.
